This assay deals with T1, human recombinant dopamine D4.2 receptor (Homo sapiens, UniProt P21917, DEL265-296).
T1 construct: purchased PerkinElmer Life and Analytical Sciences, USA; host or cells: CHO-K1 cells
T1 sequence (P21917 with tags, fused parts or gaps DEL265-296): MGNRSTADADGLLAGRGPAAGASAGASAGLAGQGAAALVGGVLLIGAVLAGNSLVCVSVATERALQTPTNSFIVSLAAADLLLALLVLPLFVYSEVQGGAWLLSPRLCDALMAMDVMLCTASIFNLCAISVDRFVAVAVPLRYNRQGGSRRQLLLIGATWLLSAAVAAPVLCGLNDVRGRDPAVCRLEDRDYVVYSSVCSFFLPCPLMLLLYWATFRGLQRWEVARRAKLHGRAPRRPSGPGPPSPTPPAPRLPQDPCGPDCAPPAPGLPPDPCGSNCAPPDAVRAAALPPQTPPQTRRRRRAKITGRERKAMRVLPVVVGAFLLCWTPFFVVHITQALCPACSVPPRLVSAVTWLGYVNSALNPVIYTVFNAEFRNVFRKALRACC
The assay is described as follows: Measurement of affinity for dopamine D4 receptor ([3H]YM-09151-2 binding). The settings on record: [3H]YM-09151-2 0.1 nM, receptor expressed in CHO-K1 cells, 120 min at 25° C. As to the method:
The affinities of the compounds for dopamine D4 receptor were measured by using human recombinant dopamine D4.2 receptor (PerkinElmer Life and Analytical Sciences, USA) expressed in CHO-K1 cells, and [^3H]YM-09151-2 (PerkinElmer) was used as a radioactive ligand.
50 mM Tris-HCl (pH 7.4) containing 120 mM NaCl, 5 mM KCl, 5 mM MgCl2 and 1 mM EDTA was used as a buffer solution for the analysis of receptor binding. [^3H] YM-09151-2 binding reactions were performed in a 96-well plate format.
For drug screening, a reaction mixture with a final volume of 0.25 mL was prepared by mixing a compound of the present invention, D4 receptor membrane (43 μg/well), [^3H] YM-09151-2 (0.1 nM), 50 mM Tris-HCl (pH 7.4) and the like. The reaction mixture was incubated for 120 min at 25° C., and then promptly passed through Wallac GF/C glass fiber filter (Wallac, Finland), which was already wetted in 0.5% PEI, by using Inotech harvester (Inotech) to terminate the reaction, and then washed with cold 50 mM Tris-HCl buffer solution. The filter was then covered with MeltiLex, sealed in a sample bag, and then dried in an oven. The radioactivity retained in the filter was finally counted using MicroBeta Plus, Wallac.
The affinity (IC50) of a compound for the receptor was calculated via nonlinear regression analysis of sigmoidal dose-response equation with the data obtained from three independent experiments (GraphPad Prism Program, San Diego, USA), which are carried out using 7-8 different concentrations of the compound in duplicate. Nonspecific binding was measured in the presence of 10 μM clozapine.
With `CCCc1cc(CCCN2CCN(c3ccccc3F)CC2)n(-c2ccccc2)n1` [Compound 156, 1-(2-fluorophenyl)-4-(3-(1-phenyl-3-propyl-1H-pyrazol-5-yl)propyl)piperazine], the IC50 (commonly the concentration that gives 50% inhibition) is 3.5 nM.

As to `CCCc1cc(CCCN2CCN(c3ccccc3)CC2)n(-c2ccccc2)n1` [Compound 155, 1-phenyl-4-(3-(1-phenyl-3-propyl-1H-pyrazol-5-yl)propyl)piperazine], the IC50 was determined as 5.9 nM.

In the case of `CCCc1cc(CCCN2CCN(c3ccc(C)c(C)c3)CC2)n(-c2ccccc2)n1` [Compound 159, 1-(3,4-dimethylphenyl)-4-(3-(1-phenyl-3-propyl-1H-pyrazol-5-yl)propyl)piperazine], the IC50 is 1.3 nM.

Turning to `CCCc1cc(CCCN2CCN(c3cccc(C)c3C)CC2)n(-c2ccccc2)n1` [Compound 160, 1-(2,3-dimethylphenyl)-4-(3-(1-phenyl-3-propyl-1H-pyrazol-5-yl)propyl)piperazine], the IC50 is 2.9 nM.

As for `CC(C)c1cc(CCCN2CCN(c3ccccc3F)CC2)n(-c2ccccc2)n1` [Compound 177, 1-(2-fluorophenyl)-4-(3-(1-phenyl-3-isopropyl-1H-pyrazol-5-yl)propyl)piperazine], the IC50 came to 8 nM.

(Values after US8372844B2, “Piperazinyl-propyl-pyrazole derivatives as dopamine D4 receptor antagonists, and pharmaceutical compositions containing the same” (Korea Research Institute of Chemical Technology, priority 2007, dated 2013).)
